According to ChEMBL document CHEMBL1201862, “PubChem BioAssay data set” (2004):
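In this assay, cells in 96-well plates receive the compound at five concentrations for 48 hours. Endpoints are linearly interpolated between the surrounding concentrations. Here, GI50 denotes the concentration required for 50% inhibition of growth.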 Active and inactive are the calls of the source. Rule as the data show it: active = GI50 up to about 1.1 µM and inactive = higher.

Key:
Experiment in all cases: NCI anticancer screen, dose series, 48 h
U-251 = tested on: U-251
K562 = tested on: K562
SK-MEL-2 = tested on: SK-MEL-2
MOLT-4 = tested on: MOLT-4
DU-145 = tested on: DU-145
LOX IMVI = tested on: LOX IMVI
UO-31 = tested on: UO-31
786-0 = tested on: 786-0
NCI-H522 = tested on: NCI-H522
OVCAR-5 = tested on: OVCAR-5
HCT-116 = tested on: HCT-116
T47D = tested on: T47D
PC-3 = tested on: PC-3
OVCAR-4 = tested on: OVCAR-4
SK-MEL-5 = tested on: SK-MEL-5
HCC 2998 = tested on: HCC 2998
A549 = tested on: A549
SF-539 = tested on: SF-539
KM12 = tested on: KM12
Hs-578T = tested on: Hs-578T

Row | Compound | GI50 (U-251) | GI50 (K562) | GI50 (SK-MEL-2) | GI50 (MOLT-4) | GI50 (DU-145) | GI50 (LOX IMVI) | GI50 (UO-31) | GI50 (786-0) | GI50 (NCI-H522) | GI50 (OVCAR-5) | GI50 (HCT-116) | GI50 (T47D) | GI50 (PC-3) | GI50 (OVCAR-4) | GI50 (SK-MEL-5) | GI50 (HCC 2998) | GI50 (A549) | GI50 (SF-539) | GI50 (KM12) | GI50 (Hs-578T)
1 | O=C(/N=N/c1ccc(Cl)cc1Cl)NNc1ccc(Cl)cc1Cl | 18.5 µM (inactive) | 20.8 µM (inactive) | 12.9 µM (inactive) | 16.3 µM (inactive) | 14.7 µM (inactive) | 16.5 µM (inactive) | 12 µM (inactive) | 15.3 µM (inactive) | 19.1 µM (inactive) | 19.3 µM (inactive) | 13.9 µM (inactive) | 21.7 µM (inactive) | 12.2 µM (inactive) | 13.3 µM (inactive) | 14.9 µM (inactive) | 11.4 µM (inactive) | 18.2 µM (inactive) |  |  | 
2 | COc1cc(C2c3cc4c(cc3OC(NN=C(C)C)C2C)OCO4)cc(OC)c1O (centres undefined) | 29.2 µM (inactive) |  | 8.61 µM (inactive) |  | 24.1 µM (inactive) |  | 46.9 µM (inactive) | 28.1 µM (inactive) | 3.94 µM (inactive) | 64.4 µM (inactive) | 24.9 µM (inactive) | 69.2 µM (inactive) | 20.8 µM (inactive) | 48.3 µM (inactive) | 10.8 µM (inactive) | 14.4 µM (inactive) | 22.9 µM (inactive) | 21.2 µM (inactive) | 21.2 µM (inactive) | 
3 | Cc1c(N)nc([C@H](CC(N)=O)NC[C@H](N)C(N)=O)nc1C(=O)N[C@H](C(=O)N[C@H](C)[C@@H](O)[C@H](C)C(=O)N[C@H](C(=O)NCCc1nc(-c2nc(C(=O)NCCC[S+](C)C)cs2)cs1)[C@@H](C)O)C(OC1OC(CO)C(O)C(O)C1OC1OC(CO)C(O)C(OC(N)=O)C1O)c1c[nH]cn1 (some centres undefined) | 0.834 µM (active) | 8.45 µM (inactive) | 13.7 µM (inactive) | 1.28 µM (inactive) | 3.66 µM (inactive) | 0.161 µM (active) | 0.478 µM (active) | 1.05 µM (active) | 0.622 µM (active) | 2.35 µM (inactive) | 0.415 µM (active) |  | 7.73 µM (inactive) | 4.92 µM (inactive) | 0.776 µM (active) | 9.62 µM (inactive) | 0.716 µM (active) | 0.02 µM (active) | 15.6 µM (inactive) | 
4 | COc1cc2c[n+](C)c3c4cc5c(cc4ccc3c2cc1OC)OCO5 [NITIDINE CHLORIDE] | 0.371 µM (active) | 4.51 µM (inactive) | 2.68 µM (inactive) | 0.411 µM (active) | 2.52 µM (inactive) | 3.97 µM (inactive) | > 61.4 µM (inactive) | 2.49 µM (inactive) | 0.24 µM (active) | 1.24 µM (inactive) | 5.96 µM (inactive) |  | 2.33 µM (inactive) | 3.45 µM (inactive) | 5.27 µM (inactive) | 2.07 µM (inactive) | 0.18 µM (active) | 1.78 µM (inactive) | 2.07 µM (inactive) | 2.9 µM (inactive)
5 | CC(C)CCNC(=O)c1ccc(CNC(=O)/C=C/c2ccc3ccccc3c2)cc1 | 36 µM (inactive) | > 100 µM (inactive) | > 100 µM (inactive) | > 100 µM (inactive) | > 100 µM (inactive) | > 100 µM (inactive) | 44.1 µM (inactive) | > 100 µM (inactive) |  | > 100 µM (inactive) | > 100 µM (inactive) | > 100 µM (inactive) | > 100 µM (inactive) | 59.3 µM (inactive) | > 100 µM (inactive) | > 100 µM (inactive) | > 100 µM (inactive) |  | > 100 µM (inactive) | 
6 | O=C(O)c1ccc2[nH]c(=O)oc2c1 | > 100 µM (inactive) | > 100 µM (inactive) | > 100 µM (inactive) | > 100 µM (inactive) | > 100 µM (inactive) | > 100 µM (inactive) |  | > 100 µM (inactive) |  | > 100 µM (inactive) | > 100 µM (inactive) |  | > 100 µM (inactive) |  |  |  |  | > 100 µM (inactive) | > 100 µM (inactive) | > 100 µM (inactive)
7 | COc1ccccc1NC(=S)NN=C(C)c1cccc(C(C)=NNC(=S)Nc2ccccc2OC)n1 | 34.3 µM (inactive) | 20 µM (inactive) | 44.9 µM (inactive) | 3.54 µM (inactive) | 24 µM (inactive) | 31.8 µM (inactive) | 20.6 µM (inactive) | 6.64 µM (inactive) | 45.6 µM (inactive) | > 100 µM (inactive) | 2.95 µM (inactive) | > 100 µM (inactive) | 27 µM (inactive) | 24.4 µM (inactive) | 3.94 µM (inactive) | > 100 µM (inactive) | 29.2 µM (inactive) | 19.9 µM (inactive) | 26.1 µM (inactive) | 
8 | O=C1Nc2ccccc2/C1=N/NC(=S)N1CCCCCC1 | 1.11 µM (active) |  | 1.66 µM (inactive) | 0.366 µM (active) | 2.2 µM (inactive) | 0.507 µM (active) | 0.35 µM (active) | 0.332 µM (active) | 2.47 µM (inactive) | 2.59 µM (inactive) | 0.312 µM (active) | 3.78 µM (inactive) | 0.453 µM (active) | 1.38 µM (inactive) | 0.0723 µM (active) | 1.52 µM (inactive) | 0.643 µM (active) | 0.168 µM (active) | 0.283 µM (active) | 
9 | COc1ccc(OC)c(NC(=O)C2=C(C)NC(C)=C(C(=O)Nc3cc(OC)ccc3OC)C2c2ccccc2)c1 | > 100 µM (inactive) | 83 µM (inactive) | > 100 µM (inactive) | 6.5 µM (inactive) |  | > 100 µM (inactive) | 35.6 µM (inactive) | > 100 µM (inactive) | > 100 µM (inactive) | > 100 µM (inactive) | 45.5 µM (inactive) |  |  | > 100 µM (inactive) | 51.3 µM (inactive) | > 100 µM (inactive) | 85.1 µM (inactive) | > 100 µM (inactive) | 91.4 µM (inactive) | 
10 | COCCCN(Cc1cc(OC)c(OC)c(OC)c1)C(=S)Nc1cccc(Cl)c1 | 31.8 µM (inactive) | 15.7 µM (inactive) | 23.1 µM (inactive) | 13.4 µM (inactive) | 37.7 µM (inactive) | 21.5 µM (inactive) | 26.1 µM (inactive) | 26.5 µM (inactive) |  | 20.8 µM (inactive) | 17.2 µM (inactive) | 12.2 µM (inactive) | 25.1 µM (inactive) | 24.4 µM (inactive) | 13.9 µM (inactive) | 39.1 µM (inactive) | 29 µM (inactive) | 42.8 µM (inactive) | 23.1 µM (inactive) | 
11 | COc1ccc2c(c1)CCC1=CC3(CCC12C)SCCS3 (centres undefined) | 9.73 µM (inactive) | 3.72 µM (inactive) |  | 3.8 µM (inactive) | > 10 µM (inactive) | 7.06 µM (inactive) |  | 5.64 µM (inactive) | 2.99 µM (inactive) |  |  | 6.03 µM (inactive) | 8.26 µM (inactive) | > 10 µM (inactive) | 6.93 µM (inactive) | 7.8 µM (inactive) | 8.05 µM (inactive) |  | 4.27 µM (inactive) | 
12 | O=C(CC(=O)c1ccccc1)C(=O)NC12CC3CC(CC(C3)C1)C2 | > 88.9 µM (inactive) | > 56.9 µM (inactive) | > 100 µM (inactive) | > 100 µM (inactive) |  | > 34.6 µM (inactive) | > 100 µM (inactive) | > 56.2 µM (inactive) | > 83.4 µM (inactive) | > 100 µM (inactive) | > 64.1 µM (inactive) |  |  | > 100 µM (inactive) | > 100 µM (inactive) | > 100 µM (inactive) | > 54.1 µM (inactive) | > 100 µM (inactive) | > 100 µM (inactive) | 
13 | CCOc1cc2c(C(=O)CC)c(O)ccc2o1 | > 100 µM (inactive) | 28.8 µM (inactive) | > 100 µM (inactive) | 58.1 µM (inactive) |  | > 100 µM (inactive) | > 100 µM (inactive) | > 100 µM (inactive) | > 100 µM (inactive) | > 100 µM (inactive) | > 48 µM (inactive) |  |  | > 40.8 µM (inactive) | > 39.3 µM (inactive) | > 100 µM (inactive) | > 100 µM (inactive) | > 100 µM (inactive) | > 100 µM (inactive) | 
14 | CCCCNC(=S)N/C=C1\C(=O)Oc2ccccc2C1=O | 54 µM (inactive) |  | 38.5 µM (inactive) | 43.3 µM (inactive) | 99.3 µM (inactive) | > 100 µM (inactive) | 37.2 µM (inactive) | > 100 µM (inactive) |  | > 100 µM (inactive) | 73.5 µM (inactive) | 81.5 µM (inactive) | 92.5 µM (inactive) | 74.5 µM (inactive) | > 100 µM (inactive) | 68.7 µM (inactive) | > 100 µM (inactive) | 98.4 µM (inactive) | > 100 µM (inactive) | 
15 | O=C1CC(C2(O)C(=O)Nc3ccc([N+](=O)[O-])cc32)c2ccccc21 (centres undefined) | 17.7 µM (inactive) | 19.7 µM (inactive) | 16.6 µM (inactive) | 20.7 µM (inactive) |  | 16.8 µM (inactive) | > 100 µM (inactive) | 15.8 µM (inactive) | 11.2 µM (inactive) | > 100 µM (inactive) | 31.3 µM (inactive) |  |  | 20 µM (inactive) | 27.7 µM (inactive) | 20.6 µM (inactive) | 62.4 µM (inactive) | 32.5 µM (inactive) | 35.4 µM (inactive) | 
16 | COc1ccccc1-c1nc[nH]c1-c1ccccc1OC |  | 19.9 µM (inactive) | 28.5 µM (inactive) | 29.2 µM (inactive) |  | 16.8 µM (inactive) | 45.1 µM (inactive) | 35.5 µM (inactive) | 13.2 µM (inactive) | 37.9 µM (inactive) | 31.8 µM (inactive) | 37.6 µM (inactive) | 18.6 µM (inactive) | 25.8 µM (inactive) |  |  | 22.6 µM (inactive) |  | 2.45 µM (inactive) | 
